row,melting point [°C],SMILES
1,182 to 184,CCc1ccc2oc(C(=O)Nc3ccc(-c4ccc(S(=O)(=O)NC(C(=O)OC)C(C)C)cc4)cc3)c(C)c2c1OC(C)C (centres undefined)
2,207 to 208,COc1cc2c(cc1-c1cccnc1)-c1c(-c3cccs3)c3c(n1CC2)C(=O)N(C(C)C)CCN(C(=O)OC(C)(C)C)C3
3,261 to 263,Cc1nnc(NC(=O)C2c3ccccc3Oc3ccccc32)o1
4,277 to 279,CC(C)Oc1cccc(C=C2Oc3ccc(C(=O)O)cc3C2=O)c1
5,163 to 165,CN(C)CC1CCCCN1CC(=O)N1c2ccccc2NC(=O)c2c1ccn2C (centres undefined)
6,143 to 145,CCN(CC)C(=O)/C=C/CSc1nc(N)cc(Cl)n1
7,179 to 180,O=c1ccn(-c2ccccc2)nc1-c1ccnn1-c1ccccc1
8,200 to 202,C#CCN1C(=O)CCc2cc(F)c(-n3nc4ccc(Cl)cn4c3=O)cc21
9,158 to 159,CC[C@@H](c1ccccc1)N(Cc1ccc(C(N)=O)cc1)S(=O)(=O)c1ccc(Cl)cc1
10,169 to 171,Cn1nnnc1C=C(c1ccc(F)cc1)c1ccc(F)cc1
11,40 to 41,CC(=O)OC(CCCCl)C(=O)OCc1ccccc1 (centres undefined)
12,115 to 118,CCN(CCC(=O)O)C(=S)Nc1c(C)cccc1C
13,94 to 96,CN(C)C(=O)C(C)(C)n1ccc(-c2cc(Cl)ccc2Cl)n1
14,245 to 248,CS(=O)(=O)N1CCN(c2n[nH]c(-c3ccc(Cl)cc3)c2-c2ccncc2)CC1
15,204,CC1=NC(NC(=O)Nc2cccc(C)c2)C(=O)N(CC(=O)N2CCCCCC2)c2c(C)cccc21 (centres undefined)
16,116 to 120,CCCCCCCCCN(C[C@H]1CCC[C@H](CN(CCCCCCCCC)C(=O)Nc2ccc(N(C)C)cc2)C1)C(=O)Nc1ccc(N(C)C)cc1 (relative stereo)
17,148 to 150,c1ccc(C2c3ccccc3-c3ncncc32)cc1 (centres undefined)
18,221 to 223,CSc1nn2c(N(C)C)cc(C)nc2c1S(=O)(=O)c1ccc(Cl)cc1
19,115 to 117,CCOC(=O)ONC(=N)c1cc(C(C)(C)C)c(OCOCCOC)c(C(C)(C)C)c1
20,163,CC(=O)c1ccncc1OC1SCC(O)C(O)C1O (centres undefined)
21,132 to 134,O=C(NC1CCCCC1)c1cccc(Cn2cnc3ccccc32)c1
22,153,COc1ccc(C2COc3cc(O)c(O)cc3C2)cc1OC (centres undefined)
23,96 to 98,OCCNCC(O)c1ccccc1 (centres undefined)

row,melting point [°C],SMILES
1,157,CC(C)(C)OC(=O)C1(O/N=C(\C(=O)O)c2csc(NC(c3ccccc3)(c3ccccc3)c3ccccc3)n2)CC1
2,140 to 142,COc1cc(C2=C(c3cn(CCCNC(=O)C(CC(C)C)NC(=O)OC(C)(C)C)c4ccccc34)C(=O)NC2=O)cc(OC)c1OC (centres undefined)
3,191 to 194,O=C1CCC(c2ccc(Cl)c(Cl)c2)c2ccccc2N1 (centres undefined)
4,193 to 195,C=C(C(=O)c1c(OC)ccc(-c2cccs2)c1OC)c1ccc(C(=O)O)cc1
5,105 to 106,CCOC(=O)Cc1cccc(S(=O)(=O)c2ccccc2)c1[N+](=O)[O-]
6,130 to 132,COc1cc(C(=O)N2CCN(C(=O)/C=C(\c3ccc(F)cc3)c3cc(OC)c(OC)c(OC)c3)CC2)cc(OC)c1OC
7,156 to 157,CCOc1nc2cccc(C(=O)O)c2n1Cc1ccc(-c2ccccc2-c2nc(=O)o[nH]2)cc1
8,214 to 215,OC1C(COCC(F)(F)F)OC(n2cnc3c(Nc4ccc(F)cc4)ncnc32)C1O (centres undefined)
9,175,Cc1cc2nc(Cl)sc2cc1C
10,89 to 91,COc1ccc(C(O)Cc2nccnc2C)cc1 (centres undefined)
11,63 to 64,COc1ccc(-c2ccc(C)nc2-c2ccc(OCCN3CCCC3)cc2)cc1
12,98 to 100,Nn1c(C(F)(F)F)ccc(-c2ccc(Cl)cc2Cl)c1=O
13,240,CN(C)c1ccc(-c2cncc(OC3SCC(O)C(O)C3O)c2)cc1 (centres undefined)
14,130,COC(=O)C(N)(CF)Cc1ccc(O)cc1 (centres undefined)
15,89,COC(=O)C1(C)Oc2ccc(Cl)cc2C(C)(C)O1 (centres undefined)
16,114 to 116,CC1COc2c(N3CCC(NC(=O)OC(C)(C)C)C3)c(F)cc3c(=O)n(N)c(=O)n1c23 (centres undefined)
17,114 to 115,CCOc1nc2c(cnn2CC)nc1C(=O)NN1CCCCC1
18,70 to 72,CC(=O)C=C1C=C(C(C)(C)C)C(=O)C(C(C)(C)C)=C1
19,49 to 50,CC(C)(C)C1(O)CCCCC1
20,176 to 177,O=C(CCCCC(=O)Oc1ccc(N=Nc2ccccc2)cc1)Oc1ccc(N=Nc2ccccc2)cc1
21,155,Cc1cccc(OC(=O)n2c3c(c(=O)n(C4CCCCO4)c2=O)CCC3)c1 (centres undefined)
22,30 to 32,CC(C)(C)Oc1ccc(CCC(=O)OCc2ccc([N+](=O)[O-])cc2)cc1
23,202 to 204,COc1nc(C)cnc1NS(=O)(=O)c1ccccc1-c1ccc(CC(C)(C)C(=O)O)cc1

row,melting point [°C],SMILES
1,210 to 212,Nc1cc(O)c(Cn2nc(-c3ccc(C(F)(F)F)cc3)oc2=O)cc1Cl
2,94 to 108,COc1cc(C2CCN(C[C@@H](C)O)CC2)ccc1Nc1ncc2ccc(-c3cc(Cl)ccc3OC)n2n1
3,225 to 226,CCCCCCCCCCCCc1ccc2nc3c(c(O)c2c1)CCCC3
4,202 to 204,CCCc1nc2c(N)nc3ccccc3c2n1CCCCS(C)(=O)=O
5,74 to 75,COC(=O)Cc1cc(OCc2ccccc2)ccc1OC
6,84 to 85,CN(C)CCCNC(=O)N1C(=O)Cc2cc(Cl)ccc21
7,201,O=C(O)CSCC(Cc1ccccc1)NCCS (centres undefined)
8,125 to 138,CCCCN(CC(=O)O)S(=O)(=O)c1ccc(N2CCC(NC[C@H](O)c3ccc(O)c(NS(C)(=O)=O)c3)CC2)cc1
9,131 to 134,CN1CCC(C(=NNc2ccccc2)c2ccccc2F)CC1
10,209,FC(F)(F)c1ccc(-c2cc(C(F)(F)F)n3ncc(-c4ccncc4)c3n2)cc1C(F)(F)F
11,190 to 193,CCOCCOCCn1c(C=O)cc2c1CC(c1ccccc1Cl)C1C(=O)NC(=O)C21 (centres undefined)
12,116 to 119,COC(=O)[C@H](CN1CCC(=C2c3ccccc3C=Cc3ccccc32)CC1)NC(=O)OCc1ccccc1
13,55 to 57,C#CCC(CC#C)NC(=O)C(F)(F)F
14,151 to 153,OC1c2cc(OCc3ccc4ccccc4n3)ccc2OCC1Oc1ccccc1 (centres undefined)
15,145 to 146,CCOC(=O)C1=C(COCCN=[N+]=[N-])NC(C)=C(C(=O)OC)C1c1ccccc1Cl (centres undefined)
16,138 to 140,CC(C)(C)c1cc(SCN2C(=O)CC(Sc3cc(C(C)(C)C)c(O)c(C(C)(C)C)c3)C2=O)cc(C(C)(C)C)c1O (centres undefined)
17,270,CC1=NN(c2ccc(C(=O)O)cc2)C(=O)C1=CNc1ccccc1C(C)C
18,219 to 220,C#CCN(Cc1cc2c(=O)[nH]c(COC(C)=O)nc2cc1Cl)c1ccc(C(=O)OC(C)(C)C)cc1
19,204 to 205,Oc1ccccc1C=NNc1nc(C(Cl)(Cl)Cl)ns1
20,75 to 77,CC(=O)c1ccc(OCC(O)CCCl)cc1 (centres undefined)
21,163 to 164,O=C1C2=NCC3(CCCC3)CN2c2ccc(S(=O)(=O)N3CCCC3CN3CCOCC3)cc21 (centres undefined)

row,SMILES,melting point [°C]
1,S=C1CN=C(c2ccccn2)c2cc(I)ccc2N1,242
2,C=CCC1(C(C)(C)C(=O)O)C(=O)NC(=O)NC1=O,202 to 203

# From a melting point compilation (Tetko et al.; mined from patent text by program, amines drawn as free bases though some values may be those of a salt)
